Data published in US20090252814A1, “USE OF XENON FOR ORGAN PROTECTION” (priority 2005, published 2009).

Columns and labels:
rabbit heart = conditions: xenon during early reperfusion, rabbit heart (Preckel et al 2000); cited from earlier work
kidney = experiment: Ischaemic-reperfusion renal injury with xenon preconditioning; assay type: in vivo, C57BL/6J mice
Protocol: Studies were performed on 8- to 12-wk-old C57BL/6J mice (Jackson Labs, Bar Harbor, Me.) that were fed a standard laboratory diet. All procedures were approved by the Home Office.
The groups of mice were treated as follows: • Naïve=no anaesthesia and no surgery of any kind was carried out on these mice; • Sham=anaesthesia and surgery was carried out on these mice but there was no clamping of the renal pedicle; • Control (or P20)=anaesthesia and surgery together with clamping of the renal pedicle was carried out on these mice but there was but no xenon preconditioning; • XPD group (or XePC24)=mice were exposed to 75% xenon for two hours (XPD=preconditioned with xenon). The xenon gas was administered to the mice by inhalation. Twenty-four hours after this preconditioning the mice then underwent anaesthesia and surgery together with clamping of the renal pedicle; and • Xe=mice were exposed to 75% xenon for two hours but no surgery together with clamping of the renal pedicle was carried out.
Renal injury, as described below, was carried out 24 hours after the mice were exposed to xenon. […]
Kidneys were removed from mice immediately after they were killed, cut in half, fixed in neutral-buffered formalin, and embedded in paraffin. Sections (5 μm thick) of formalin-fixed, paraffin-embedded tissue were mounted on glass slides and stained with haematoxylin-eosin for general histology and quantitative analysis. All tissues were evaluated without investigator knowledge of the group from which it originated.
For quantification of morphologic data, more than 10 low-magnification fields (×200) including both cortex and outer medulla were randomly selected. […] The total score for each kidney was calculated by addition of all 10 scores (maximum score 30). The histology score was assessed in a blinded manner in each group. […] mice were assessed for the control and XPD groups and four mice were assessed for each of the naïve and sham groups.
Mean±SEM are presented. The significant difference in mean values was evaluated by either a t test or by Dunnett paired t test for multiple comparisons. […]

[1] = xenon gas; cited from earlier work
[2] = XePC24 group compared to P20 group (no preconditioning)

For `[Xe]` [xenon], the “infarct size after regional ischaemia” value (rabbit heart) is given as “reduces infarct size”, the “morphologic injury in the kidney” value (kidney; 75% xenon 2 h, 24 h before 20 min ischaemia and 24 h reperfusion, histology score) is given as “decreased” and the “amount of creatinine in blood plasma” value (kidney; [2]) is given as “significantly decreases”. For the same molecule, the “amount of urea nitrogen in blood plasma” value (kidney; [2]) was “significantly decreases” and the “specific gravity or density” value [1] was 5.887 g/L.
